We go through seven compounds from patent publication EP2332917B1, “Compounds for PIM kinase inhibition and for treating malignancy” (Sygnis Bioscience GmbH & Co. KG, priority 2009, dated 2011).

This experiment deals with T1, PIM-1 kinase (Homo sapiens, UniProt P11309).
T1 construct: purchased Cell Signaling Technology Inc., Boston, USA
The experiment is described as follows: In vitro assay for PIM-1 kinase inhibition (PIM-1 Kinase Assay Kit, colorimetric ELISA readout). It counts as biochemical. The note with it: for PIM-1 kinase inhibition (result in words): increasing concentrations 0.1 to 100 µM, Fig. 1 (1.5 ng PIM-1 kinase) and Fig. 2 (2.5 ng PIM-1 kinase); for % remaining PIM-1 kinase activity: test compound at final concentration 100 µM, normalized to positive control (no test compound) = 100 % activity, 1.5 ng (A-D series) or 2.5 ng (E series) PIM-1 kinase, 200 µM ATP. Here is the method: • Fig. 1: The compounds 1-chloro-5-([1,4]diazepane-1-sulfonyl)-8-propoxy-isoquinoline (compound A), 1-chloro-5-(piperazin-1-sulfonyl)-8-methoxy-isoquinoline (compound B), […] (compound C), and 1-chloro-5-([1,4]diazepane-1-sulfonyl)-6-methoxy-isoquinoline (compound D) are potent PIM kinase inhibitors. In vitro assays of PIM-1 kinase activity (1.5 ng) in the present of increasing concentrations of the compounds A, B, C or D were performed as described within example 5. An assay without additional test compound served as positive control for the assay (pos) and an assay without PIM-1 kinase served as negative assay (neg). […] Each assay result was normalized in comparison to the positive control which was defined as 100 % activity. […] In vitro assays of PIM-1 kinase activity (2.5 ng) in the present of increasing concentrations of the compound E were performed as described within example 5. An assay without additional test compound served as positive control for the assay (pos) and an assay without PIM-1 kinase served as negative assay (neg). […] Each assay result was normalized in comparison to the positive control which was defined as 100 % activity.
The in vitro assay for PIM-1 kinase inhibition was performed using the PIM-1 Kinase Assay Kit (Cell Signaling Technology Inc., Boston, USA) according to the manufacture's instruction. Briefly, 1.5 or 2.5 ng PIM-1 kinase has been dissolved in 50 µl assay buffer (25 mM Tris-Hcl (pH 7.5), 10 mM MgCl2, 5 mM beta-glycerophosphate, 0.1 mM Na3VO4, 2 mM DTT, 200 µM ATP, and 1.5 µM peptide substrate) and test compound has been added to a final concentration in a range of 0.1 to 100 µM. After 30 minutes incubation at ambient temperature the reaction was stopped by adding 50 µl Stop buffer (50 mM EDTA, pH 8) per reaction. An aliquot of 25 µl per reaction was diluted each by 75 µl water and transferred to a 96-well streptavidin-coated plate. After 60 minutes incubation and three times washing with PBS, 100 µl/well primary antibody (Phospho-Bad (Ser112) antibody, 1:1000 diluted in PBS) was added. After further 2 h incubation and three times washing with PBS, an usual colorimetric ELISA assay was performed using a HRP labeled second antibody according to the manufacture's instructions. A PIM kinase reaction without addition of a test compound served as positive control (pos) and an assay without PIM kinase served as negative control (neg). […] The PIM-1 kinase inhibition of the test compounds (1-chloro-5-([1,4]diazepane-1-sulfonyl)-8-propoxy-isoquinoline (compound A), 1-chloro-5-(piperazin-1-sulfonyl)-8-methoxy-isoquinoline (compound B), 1-methyl-5-([1,4]diazepane-1-sulfonyl)-8-methoxy-isoquinoline (compound C), and 1-chloro-5-([1,4]diazepane-1-sulfonyl)-6-methoxy-isoquinoline (compound D)) was measured in a first series of assays, and the one of the compound 5-([1,4]diazepane-1-sulfonyl)-8-methoxy-isoquinoline (compound E) was measured in a second series of assays. Within each series of assays the measured PIM-1 kinase activity was normalized in comparison to the positive control (pos) which was defined as 100 % activity. […] The table below summarizes the percentage of the remaining PIM-1 kinase activity in the presence of the test compounds in a final concentration of 100 µM.

SMILES strings stand for the structures. Entries after “also recorded” stand apart in the source; their conditions may differ.

T1 sequence (P11309 whole entry): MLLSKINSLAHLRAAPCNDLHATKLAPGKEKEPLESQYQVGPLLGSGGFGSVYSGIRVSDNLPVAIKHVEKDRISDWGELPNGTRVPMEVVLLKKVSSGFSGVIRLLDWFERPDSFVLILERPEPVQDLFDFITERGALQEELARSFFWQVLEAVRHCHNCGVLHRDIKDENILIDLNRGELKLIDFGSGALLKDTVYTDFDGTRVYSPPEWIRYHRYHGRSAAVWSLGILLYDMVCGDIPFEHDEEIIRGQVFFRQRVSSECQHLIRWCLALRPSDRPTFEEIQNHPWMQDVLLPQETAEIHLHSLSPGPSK

`COc1ccc(S(=O)(=O)N2CCCNCC2)c2ccnc(C)c12` [C, 1-methyl-5-([1,4]diazepane-1-sulfonyl)-8-methoxy-isoquinoline]: the “PIM-1 kinase inhibition (result in words)” value (“PIM-1 kinase inhibition” for short) was “potent PIM-1 kinase inhibitors; also recorded: potent PIM inhibitory effect” and the “% remaining PIM-1 kinase activity” value is listed as 31%.

`CCCOc1ccc(S(=O)(=O)N2CCCNCC2)c2ccnc(Cl)c12` [Compound A, 1-chloro-5-([1,4]diazepane-1-sulfonyl)-8-propoxy-isoquinoline]: the “PIM-1 kinase inhibition” value is “potent PIM-1 kinase inhibitors; also recorded: potent PIM inhibitory effect” and the “% remaining PIM-1 kinase activity” value is recorded as 23%.

With `COc1ccc(S(=O)(=O)N2CCCNCC2)c2ccnc(Cl)c12` [G, 1-chloro-8-methoxy-Fasudil, reference compound], the “PIM-1 kinase inhibition” value was “very potent PIM-1 inhibitor” and the “% remaining PIM-1 kinase activity” value was 17%.

On to `COc1ccc(S(=O)(=O)N2CCCNCC2)c2ccncc12` [E, 5-([1,4]diazepane-1-sulfonyl)-8-methoxy-isoquinoline, reference compound], for which the “PIM-1 kinase inhibition” value was “at most a moderate PIM-1 kinase inhibition; also recorded: only weak PIM inhibitory effect” and the “% remaining PIM-1 kinase activity” value was found to be 46%.

Take `COc1ccc2c(Cl)nccc2c1S(=O)(=O)N1CCCNCC1` [D, 1-chloro-5-([1,4]diazepane-1-sulfonyl)-6-methoxy-isoquinoline]: the “PIM-1 kinase inhibition” value is given as “potent PIM-1 kinase inhibitors; also recorded: potent PIM inhibitory effect” and the “% remaining PIM-1 kinase activity” value came out at 29%.

For `O=S(=O)(c1cccc2cnccc12)N1CCCNCC1` [F, Fasudil, reference compound], the “PIM-1 kinase inhibition” value is recorded as “at the most very weak PIM-1 inhibition” and the “% remaining PIM-1 kinase activity” value is reported as 71%.

For `COc1ccc(S(=O)(=O)N2CCNCC2)c2ccnc(Cl)c12` [B, 1-chloro-5-(piperazin-1-sulfonyl)-8-methoxy-isoquinoline], the “PIM-1 kinase inhibition” value is recorded as “potent PIM-1 kinase inhibitors; also recorded: potent PIM inhibitory effect” and the “% remaining PIM-1 kinase activity” value was 33%.
